The results in this text go back to paper PMC9037614 (RSC Advances, 2021).

The IC50 is the concentration that inhibits the measured activity by half.

What all share (assay): cells
Type in all cases: cell-based

Assay [1] concerns human non-small-cell lung cancer A549 cells. The settings on record: A549, read-out: IC50 against A549.
In assay [2] the test system is human non-small-cell lung cancer H460 cells. The settings on record: NCI-H460, read-out: IC50 against H460.
The subject of assay [3] is human bronchial epithelial cell line HBE. The settings on record: for IC50: Homo sapiens, HBE, read-out: IC50 against HBE.

Turning to `CCN1C[C@]2(C)CC[C@H](O)[C@@]34C5C[C@@H]6[C@@H](OC)C[C@@](O)(C5[C@H]6O)[C@@H](CC23)C14` (stereo partly shown) [Compound 9, karacoline], the IC50 in assay [1] is 8.28 ± 0.41 µM; in assay [2], 9.69 ± 0.4 µM; in assay [3], 49.7 ± 8.11 µM. The “selectivity towards cancerous cell lines over non-cancerous cell line” value in assay [3] (A549/H460 versus HBE, from IC50 values) was “higher selectivity”.
As to `CCN1C[C@]2(COC)CC[C@H](O)[C@@]34C5C[C@@H]6[C@@H](OC)C[C@](O)(C(CC23)C14)C5[C@H]6OC(C)=O` (stereo partly shown) [Compound 30, condelphine], the IC50 in assay [1] is 16.4 ± 2.38 µM; in assay [2] it was 16 ± 1.15 µM; in assay [3] it was 31.4 ± 6 µM.
Taken in the same sequence, the figures for `O=c1[nH]cc(F)c(=O)[nH]1` [Compound 5-FU, 5-fluorouracil, reference compound] were 12.5 ± 8.81 µM, 6.16 ± 1.8 µM and 8.93 ± 6.05 µM.
With `CCN1C[C@]2(COC)CC[C@H](OC)[C@]34C1C([C@H](OC)[C@H]23)[C@]1(OC(C)=O)[C@H]2[C@@H](OC(=O)c3ccccc3)[C@](O)(C[C@H]24)[C@@H](OC)[C@@H]1O` [Compound 34, deoxyaconitine], the IC50 in assay [1] came to 14.9 ± 4.02 µM; in assay [2] it was 14.6 ± 1.32 µM; in assay [3] it was 31 ± 4.8 µM.
Taken in the same sequence, the figures for `COC[C@@]12CC[C@H](OC)[C@]34C(C([C@H](OC)[C@H]13)[C@]1(OC(C)=O)[C@H]3[C@@H](OC(=O)c5ccccc5)[C@](O)(C[C@H]34)[C@@H](OC)[C@@H]1O)N(C)C2` [Compound 33, hypaconitine] were 14.3 ± 1.79 µM, 16.5 ± 2.22 µM and 32.7 ± 4.56 µM.
Taken in the same sequence, the figures for `C=C1[C@H]2C[C@@]3([C@@H]1O)[C@@H](CC2=O)[C@]12[C@@H]4C[C@H]3[C@H]1N(CC)C[C@]4(C)CC[C@@H]2O` [Compound 5, songorine] were 21.2 ± 0.84 µM, 25.1 ± 0.59 µM and 32.4 ± 2.62 µM.
